Assay results published in patent US10493158B2, “Pharmaceutical compositions for the treatment of inflammatory disorders” (GALAPAGOS NV, priority 2014, dated 2019).
Where a name gives a salt, the structure may show the parent alone. Each block holds one compound with its values, some of them ahead of it.

Key:
[1] = Dog bioavailability study (PK after single oral administration of capsules); type: in vivo, beagle dogs; conditions: for Cmax / Exposure AUC / Tmax: listed as HCl•trihydrate
Description: The dogs are not fasted before dosing, and have free access to water. Every day of the treatment, a half food ration is provided after the T0 blood sampling, 8 to 17 min before treatment, and the second half ration is given just after dosing or 1 h after treatment for period 2. A 3 days washout period is ensured between treatments.
The capsule composition is described in the table below.
The capsules are administered orally with water (5-10 mL), to provide good oesophageal transit. Each animal is checked at least once daily.
Blood is collected from the jugular vein into lithium heparinised tubes at T0 (before food administration) and then at 1 h, 2 h, 4 h, 6 h, 8 h, 10 h, and 24 h post treatment.
Plasma is then obtained from blood by centrifugation (2500 g for 10 min at 4° C.), and stored at −20° C. until analysis.
After vortex mixing and centrifugation at 4° C., the supernatants are diluted with a 0.5 volume of HPLC grade water in a midi-eppendorf 96-well plate. The plate is sealed and shaken to ensure sample homogeneity prior to analysis.
Pharmacokinetic analysis is performed using WinNonlin™ software version 5.3, using concentrations from individual animals. Non-compartmental analysis is applied to determine the PK parameters (Cmax, Tmax, AUC0-last, t1/2, etc . . . )
Concentrations below the limit of detection are set to zero for descriptive statistics and PK parameter calculations.

[2] = Accelerated stability study of Compound 1.HCl.3H2O (FT-IR, DSC, XRPD); type: physicochemical; conditions: 3 months
Text: Samples of [Compound 1. HCl.3H2O] are stored under conditions to evaluate chemical stability and physical stability as described in the table below: [table] Samples are taken at T0, then every month up to 3 months, and analysed by FT-IR, DSC, and XRPD.

[3] = Salt study: XRPD analysis / hygroscopicity of the hydrochloric acid salt; type: physicochemical; conditions: salt containing 4-5% water
Description: (§1) The mixture is cooled to 25° C. at 1° C./min and stirred at 25° C. for 22 h. The solid is isolated by vacuum filtration and dried under suction.

[4] = Thermodynamic aqueous solubility by HPLC; type: physicochemical; conditions: water
Description: as §1

[5] = dogs, oral capsules, on average and at the 2 capsule strengths
[6] = male beagle dogs, single oral administration, capsules, dose 25 mg/kg
[7] = male beagle dogs, single oral administration, capsules, dose 100 mg/kg

AUC ([1]; male, beagle, dog, plasma, po, 100 mg/kg, male beagle dogs, single oral administration, capsules, dose 100 mg/kg, read-out: Exposure AUC): 11100 ng·h/mL
Compound: O=C(Nc1nc2cccc(-c3ccc(CN4CCS(=O)(=O)CC4)cc3)n2n1)C1CC1 [Compound 1, cyclopropanecarboxylic acid {5-[4-(1,1-dioxo-thiomorpholin-4-ylmethyl)-phenyl]-[1,2,4]triazolo[1,5-a]pyridin-2-yl}-amide]

chemical and physical stability ([2]; 25° C./60% RH open, 40° C./75% RH open, 50° C. closed, RT/<5%, 56%, 75% RH open): stable under all conditions
change in crystallinity ([2]; all storage conditions of Table VI): no change in crystallinity
half-life ([1]; dog, plasma, male beagle dogs, single oral administration, one range printed across both forms and both doses): 4.43 to 8.96 h
in vivo exposure compared with Compound 1 (free base) [1, 5]: improved exposure
rate of absorption compared with Compound 1 (free base) [1, 5]: more rapidly absorbed
Cmax [1, 6]: 3050 ng/mL
Exposure AUC [1, 6]: 33600 ng·h/mL
Tmax [1, 6]: 2.0 h
Cmax [1, 7]: 2630 ng/mL
Exposure AUC [1, 7]: 21700 ng·h/mL
Tmax [1, 7]: 2.0 h
Compound: O=C(Nc1nc2cccc(-c3ccc(CN4CCS(=O)(=O)CC4)cc3)n2n1)C1CC1 [Compound 1.HCl.3H2O, cyclopropanecarboxylic acid {5-[4-(1,1-dioxo-thiomorpholin-4-ylmethyl)-phenyl]-[1,2,4]triazolo[1,5-a]pyridin-2-yl}-amide]

hygroscopicity of the salt [3]: non-hygroscopic
solubility [4]: 1900 µg/mL
Compound: O=C(Nc1nc2cccc(-c3ccc(CN4CCS(=O)(=O)CC4)cc3)n2n1)C1CC1 [hydrochloric acid salt of Compound 1, cyclopropanecarboxylic acid {5-[4-(1,1-dioxo-thiomorpholin-4-ylmethyl)-phenyl]-[1,2,4]triazolo[1,5-a]pyridin-2-yl}-amide]
